Calls of active or inactive are those of the source. No cut-off for these calls is given here.
Columns and labels:
Type in all cases: functional
[1] = biological target: Substance-P receptor (Cavia porcellus) (UniProt P30547); experiment: Compound was evaluated for NK-1 receptor antagonistic activity in the guinea pig trachea; Inactive
[2] = biological target: T1, Neuromedin-K receptor (Cavia porcellus) (UniProt P30098); experiment: Compound was evaluated for NK-3 receptor antagonistic activity in the guinea pig trachea; Inactive
T1 sequence (whole entry): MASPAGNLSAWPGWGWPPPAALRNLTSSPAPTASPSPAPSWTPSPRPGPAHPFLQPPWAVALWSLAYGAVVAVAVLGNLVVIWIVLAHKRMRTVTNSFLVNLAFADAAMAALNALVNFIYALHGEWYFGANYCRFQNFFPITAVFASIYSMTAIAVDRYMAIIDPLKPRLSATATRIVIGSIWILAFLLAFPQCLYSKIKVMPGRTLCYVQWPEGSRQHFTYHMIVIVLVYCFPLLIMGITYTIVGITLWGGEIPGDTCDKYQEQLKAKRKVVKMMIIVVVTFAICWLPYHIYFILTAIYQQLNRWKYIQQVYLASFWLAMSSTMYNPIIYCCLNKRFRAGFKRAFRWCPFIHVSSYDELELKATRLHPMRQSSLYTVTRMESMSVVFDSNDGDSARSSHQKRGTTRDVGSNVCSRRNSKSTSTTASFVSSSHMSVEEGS

Substance-K receptor = biological target: T2, Substance-K receptor (Cavia porcellus, UniProt Q64077); experiment: Compound was evaluated for NK-2 receptor antagonistic activity in the guinea pig trachea; details: read-out: pA2 (converted)
T2 sequence (Q64077 whole entry): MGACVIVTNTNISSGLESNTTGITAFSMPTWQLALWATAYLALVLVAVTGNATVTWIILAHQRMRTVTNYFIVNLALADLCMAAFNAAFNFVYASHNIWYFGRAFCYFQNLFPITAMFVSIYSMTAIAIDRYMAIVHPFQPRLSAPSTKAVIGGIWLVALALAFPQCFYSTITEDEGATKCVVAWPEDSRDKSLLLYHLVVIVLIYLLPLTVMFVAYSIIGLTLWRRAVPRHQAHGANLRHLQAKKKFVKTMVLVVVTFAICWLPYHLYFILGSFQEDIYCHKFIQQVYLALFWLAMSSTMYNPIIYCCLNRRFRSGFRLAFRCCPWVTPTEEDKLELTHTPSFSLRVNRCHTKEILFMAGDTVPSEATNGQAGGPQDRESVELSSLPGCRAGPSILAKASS

Sequence of Substance-P receptor (Cavia porcellus) (P30547 whole entry): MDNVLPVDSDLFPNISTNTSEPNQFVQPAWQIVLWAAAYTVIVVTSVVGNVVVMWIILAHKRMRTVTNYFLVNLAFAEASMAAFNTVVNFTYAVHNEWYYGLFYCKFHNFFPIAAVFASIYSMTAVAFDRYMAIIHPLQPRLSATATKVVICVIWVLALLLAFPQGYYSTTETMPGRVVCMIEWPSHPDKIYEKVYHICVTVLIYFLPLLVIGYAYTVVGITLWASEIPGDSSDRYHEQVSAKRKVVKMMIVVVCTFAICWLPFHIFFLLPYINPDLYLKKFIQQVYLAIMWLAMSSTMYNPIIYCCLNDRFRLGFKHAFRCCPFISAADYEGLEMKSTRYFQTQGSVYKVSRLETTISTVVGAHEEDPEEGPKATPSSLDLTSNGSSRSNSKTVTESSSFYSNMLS

pA2 [1]: inactive
pA2 [2]: inactive
Kb (Substance-K receptor): 50.1 nM
SMILES: O=c1c2cnn(-c3ccccc3)c2nc2scc(-c3ccccc3)n12
